Measured values published in patent US20140364438A1, “TRIAZOLOPYRIDINE DERIVATIVES AS A TYROSINE KINASE INHIBITOR” (HANMI PHARM. CO., LTD., priority 2012, published 2014).

How the values were obtained:
JAK3 = target: T1, JAK3 (Homo sapiens, UniProt P52333); experiment: JAK3 kinase inhibitory activity, Z-Lyte Kinase Assay Kit; format: biochemical; conditions: 60 minutes at room temperature
T1 construct: purchased Invitrogen PV3855
Protocol: (§1) The compounds prepared in Examples 1 to 5 were tested for JAK3 and BTK kinase inhibitory activity. Kinase inhibitory activity was measured by using Z-Lyte Kinase Assay Kit (Invitrogen), and JAK3 and BTK enzymes were purchased from Invitrogen (PV3855, PV3190).
(§2) Specifically, the compounds of Examples 1 to 5 were diluted with an aqueous solution of 4% DMSO to obtain solutions with concentrations in the range of 1 to 0.0001 μM. Each kinase was diluted to 1 to 10 ng/assay, and ATP was diluted to form a kinase buffer (50 mM HEPES, pH 7.4; 10 mM MgCl2; 1 mM EGTA; and 0.01% BRIJ-35) by calculating an approximate Kd value. The assays were performed in 384-well polystyrene flat-bottomed plates. Peptide substrate having a suitable concentration, 10 μL of mixed kinase solution and 5 μL of ATP solution having a concentration of 5 to 300 μM were added to 5 μL of the diluted solution of the compound, and allowed to react in a mixer for 60 minutes at room temperature. After 60 minutes, 10 μL of fluorescent labeling reagents was added to each mixture so as to allow fluorescent labeling of peptide substrates, followed by adding a finishing solution to complete the reaction. The fluorescence level was determined with a Molecular Device at 400 nm (excitation filter) and 520 nm (emission filter). The kinase inhibitory activities of the compounds were calculated in phosphorylation rates between 0˜400% against the control group (staurosporine or each of kinase inhibitor) according to the reference protocol of the kit, and percentage inhibition was determine and plotted against concentration (x-axis) to calculate 50% inhibitory concentration (IC50). The calculation and analysis of IC50 were carried out by using Microsoft Excel.

BTK = target: T2, BTK (Homo sapiens, UniProt Q06187); experiment: BTK kinase inhibitory activity, Z-Lyte Kinase Assay Kit; format: biochemical; conditions: 60 minutes at room temperature
T2 construct: purchased Invitrogen PV3190
Protocol: as §1, §2

T1 sequence (P52333 781-1124 limits assumed): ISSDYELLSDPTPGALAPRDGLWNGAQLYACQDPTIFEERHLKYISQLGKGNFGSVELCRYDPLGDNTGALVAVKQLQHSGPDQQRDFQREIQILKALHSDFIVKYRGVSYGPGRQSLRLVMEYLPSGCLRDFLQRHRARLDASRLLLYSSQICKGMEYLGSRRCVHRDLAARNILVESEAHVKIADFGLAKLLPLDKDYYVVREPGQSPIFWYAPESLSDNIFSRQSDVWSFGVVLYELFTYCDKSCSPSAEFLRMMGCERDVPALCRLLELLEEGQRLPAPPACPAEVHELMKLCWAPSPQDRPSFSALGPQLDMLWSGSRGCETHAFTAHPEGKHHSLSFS
T2 sequence (Q06187 whole entry): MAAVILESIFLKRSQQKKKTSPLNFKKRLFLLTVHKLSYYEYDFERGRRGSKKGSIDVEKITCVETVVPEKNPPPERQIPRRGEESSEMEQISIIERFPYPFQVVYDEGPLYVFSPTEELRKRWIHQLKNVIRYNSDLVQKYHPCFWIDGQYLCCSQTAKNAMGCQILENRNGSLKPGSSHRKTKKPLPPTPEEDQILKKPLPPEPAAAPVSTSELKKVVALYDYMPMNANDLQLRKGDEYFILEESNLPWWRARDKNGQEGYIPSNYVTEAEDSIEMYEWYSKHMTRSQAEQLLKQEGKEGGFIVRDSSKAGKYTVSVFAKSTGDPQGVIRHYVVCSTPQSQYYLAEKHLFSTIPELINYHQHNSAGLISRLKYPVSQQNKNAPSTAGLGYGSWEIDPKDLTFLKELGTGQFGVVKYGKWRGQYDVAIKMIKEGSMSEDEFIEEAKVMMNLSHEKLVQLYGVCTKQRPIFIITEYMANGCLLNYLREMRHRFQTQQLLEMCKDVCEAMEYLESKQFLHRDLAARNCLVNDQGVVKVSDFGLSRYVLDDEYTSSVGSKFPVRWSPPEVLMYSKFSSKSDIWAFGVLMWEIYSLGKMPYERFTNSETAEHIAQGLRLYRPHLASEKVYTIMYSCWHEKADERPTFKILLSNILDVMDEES

| IC50 (JAK3; class symbol) [nM] | IC50 (JAK3; numeric value in parentheses) [nM] | IC50 (BTK; class symbol) [nM] | IC50 (BTK; numeric value in parentheses) [nM] | SMILES |
| --- | --- | --- | --- | --- |
| ≤ 100 | 9 | ≤ 100 | 73 | C=CC(=O)Nc1cccc(Oc2cccn3nc(Nc4ccc(N5CCN(C)CC5)cc4)nc23)c1 [Example 1, N-(3-(2-(4-(4-methylpiperazin-1-yl)phenylamino)-[1,2,4]triazolo[1,5-a]pyridin-8-yloxy)phenyl)acrylamide] |
| ≤ 100 |  | 100 to 500 |  | C=CC(=O)Nc1cccc(Oc2cccn3nc(Nc4ccc(NC5CCN(C)CC5)c(F)c4)nc23)c1 [Example 2, N-(3-(2-(3-fluoro-4-(1-methylpiperidin-4-ylamino)phenylamino)-[1,2,4]triazolo[1,5-a]pyridin-8-yloxy)phenyl)acrylamide] |
| ≤ 100 |  | 100 to 500 |  | C=CC(=O)Nc1cccc(Oc2cccn3nc(Nc4ccc(CN(C)C)cc4)nc23)c1 [Example 3, N-(3-(2-(4-((dimethylamino)methyl)phenylamino)-[1,2,4]triazolo[1,5-a]pyridin-8-yloxy)phenyl)acrylamide] |
| ≤ 100 |  | 500 to 1000 |  | C=CC(=O)Nc1cccc(Oc2cccn3nc(Nc4ccc(N5CCN(C(C)C)CC5)cc4)nc23)c1 [Example 5, N-(3-(2-(4-(4-isopropylpiperazin-1-yl)phenylamino)-[1,2,4]triazolo[1,5-a]pyridin-8-yloxy)phenyl)acrylamide] |
| ≤ 100 |  | 100 to 500 |  | C=CC(=O)Nc1cccc(Oc2cccn3nc(Nc4ccc(C(=O)N5CCN(C)CC5)cc4)nc23)c1 [Example 4, N-(3-(2-(4-(4-methylpiperazin-1-carbonyl)phenylamino)-[1,2,4]triazolo[1,5-a]pyridin-8-yloxy)phenyl)acrylamide] |
